Test results published in ChEMBL document CHEMBL3046484, “Fumigant toxicity of lemon eucalyptus oil constituents to acaricide-susceptible and acaricide-resistant Tetranychus urticae” (2011).

Experiments:
Type in all cases: functional
Tetranychus urticae [1] = experiment: Insecticidal activity against acaricide-susceptible female Tetranychus urticae KST (two-spotted spider mite) in kidney bean assessed as mortality in 3 cm disks measured after 24 hr exposure by vapour-phase mortality bioassay
Tetranychus urticae [2] = experiment: Insecticidal activity against abamectin-resistant female Tetranychus urticae ART-53 (two-spotted spider mite) in kidney bean assessed as mortality in 3 cm disks measured after 24 hr exposure by vapour-phase mortality bioassay
Tetranychus urticae [3] = experiment: Insecticidal activity against fenpropathrin-resistant female Tetranychus urticae FRT-53 (two-spotted spider mite) in kidney bean assessed as mortality in 3 cm disks measured after 24 hr exposure by vapour-phase mortality bioassay
Tetranychus urticae [4] = experiment: Insecticidal activity against pyridaben-resistant female Tetranychus urticae PRT-53 (two-spotted spider mite) in kidney bean assessed as mortality in 3 cm disks measured after 24 hr exposure by vapour-phase mortality bioassay
Tetranychus urticae [5] = experiment: Insecticidal activity against chlorfenapyr-resistant female Tetranychus urticae CRT-53 (two-spotted spider mite) in kidney bean assessed as mortality in 3 cm disks measured after 24 hr exposure by vapour-phase mortality bioassay

SMILES	LC50 (Tetranychus urticae [1])	LC50 (Tetranychus urticae [2])	LC50 (Tetranychus urticae [3])	LC50 (Tetranychus urticae [4])	LC50 (Tetranychus urticae [5])
CC1=CC=C(C(C)C)CC1	260 microg/cm3	277.5 microg/cm3	263.3 microg/cm3	253.2 microg/cm3	293.9 microg/cm3
CC1=CC[C@@](O)(C(C)C)CC1	36.9 microg/cm3	38.7 microg/cm3	40.8 microg/cm3	43.7 microg/cm3	36.7 microg/cm3
CC1=CC[C@H](C(C)C)C=C1	299.7 microg/cm3	354.7 microg/cm3	360.6 microg/cm3	340.7 microg/cm3	380.1 microg/cm3
C=C1CC[C@@H]2[C@@H]([C@@H]3[C@H](C)CC[C@@H]13)C2(C)C [(+)-AROMADENDRENE]	>500 microg/cm3	–	–	–	–
C=C1CC[C@H]2O[C@]2(C)CC[C@@H]2[C@@H]1CC2(C)C [(-)-CARYOPHYLLENE OXIDE]	>500 microg/cm3	–	–	–	–
C=C[C@]1(C)CC[C@@H](C(C)(C)O)O1 [(E)-LINALOOL OXIDE]	>500 microg/cm3	–	–	–	–
C=C1CC/C=C(\C)CC[C@@H]2[C@@H]1CC2(C)C [BETA-CARYOPHYLLENE]	47.6 microg/cm3	53.4 microg/cm3	47.7 microg/cm3	44.7 microg/cm3	49.1 microg/cm3
CC1(C)C2CCC1(C)C(O)C2 (centres undefined) [BORNEOL]	>500 microg/cm3	–	–	–	–
CC(C)=CCC[C@@H](C)CC=O [CITRONELLAL]	33.9 microg/cm3	34.9 microg/cm3	34 microg/cm3	34.9 microg/cm3	34.8 microg/cm3
CC(C)=CCCC(C)CCO (centres undefined) [CITRONELLOL]	21.7 microg/cm3	26 microg/cm3	21.4 microg/cm3	25.9 microg/cm3	26.1 microg/cm3
CC(=O)OCCC(C)CCC=C(C)C (centres undefined) [CITRONELLYL ACETATE]	16.8 microg/cm3	12.8 microg/cm3	16.5 microg/cm3	17.4 microg/cm3	16.7 microg/cm3
C=C(C)[C@H]1CC=C(C)CC1 [D-LIMONENE]	246.7 microg/cm3	277.6 microg/cm3	284.3 microg/cm3	288.5 microg/cm3	333.3 microg/cm3
CC12CCC(CC1)C(C)(C)O2 [EUCALYPTOL]	275 microg/cm3	256.3 microg/cm3	249 microg/cm3	263.7 microg/cm3	298.4 microg/cm3
C=CCc1ccc(O)c(OC)c1 [EUGENOL]	24.6 microg/cm3	27.8 microg/cm3	28.6 microg/cm3	31.7 microg/cm3	25.9 microg/cm3
CC(C)=CCC/C(C)=C/CO [GERANIOL]	32.1 microg/cm3	33.3 microg/cm3	26.8 microg/cm3	33.2 microg/cm3	32 microg/cm3
CC(=O)OC/C=C(\C)CCC=C(C)C [GERANYL ACETATE]	24.5 microg/cm3	24 microg/cm3	26.7 microg/cm3	24.5 microg/cm3	25.3 microg/cm3
C=C(C)[C@@H]1CC[C@@H](C)C[C@H]1O [ISOPULEGOL]	30.3 microg/cm3	29 microg/cm3	30.1 microg/cm3	27.7 microg/cm3	30.7 microg/cm3
C=CC(C)(O)CCC=C(C)C (centres undefined) [LINALOOL]	54.6 microg/cm3	62.4 microg/cm3	57.3 microg/cm3	55 microg/cm3	58.9 microg/cm3
CC1CCC(C(C)C)C(O)C1 (centres undefined) [MENTHOL]	12.9 microg/cm3	13.7 microg/cm3	12.8 microg/cm3	12.9 microg/cm3	13 microg/cm3
C=CC(=C)CCC=C(C)C [MYRCENE]	349.8 microg/cm3	384.2 microg/cm3	369.3 microg/cm3	377.4 microg/cm3	370.6 microg/cm3
C=C/C(C)=C/CC=C(C)C [OCIMENE]	255 microg/cm3	281.3 microg/cm3	289.6 microg/cm3	260.2 microg/cm3	277.2 microg/cm3
Cc1ccc(C(C)C)cc1 [P-CYMENE]	231.4 microg/cm3	265.2 microg/cm3	238.9 microg/cm3	243.3 microg/cm3	213.5 microg/cm3
